Test results from patent US20240197603A1, “METHODS AND COMPOSITIONS FOR TREATING HYPERPIGMENTATION DISORDERS” (INSERM (INSTITUT NATIONAL DE LA SANTÉ ET DE LA RECHERCHE …, priority 2021, published 2024).

Tests used:
B16F10 cells [1] = test: Melanin content in B16F10 cells; type: cell-based, Mouse
Procedure: (§1) Mouse B16F10 and Human 501Mel melanoma cells were cultured in Dulbecco's modified Eagle's medium (DMEM) supplemented with 7% Fetal Bovine Serum and 1% Penicillin/Streptomycin. Human MNT1 melanoma cells were cultured as described (Yasumoto et al., 2004). Normal Human Melanocytes were isolated from foreskin obtained after phimosis surgery. Patient consent was not required because French laws consider tissue left over from postectomy as discarded material. Melanocytes were cultured in MCDB medium as described (Bonet et al., 2017). Cells were tested every 4 weeks for […] presence. […] Cells were transfected with 50 nM siRNAs to SLC7A5, MITF or control siRNAs (ON-TARGETplus, Dharmacon) using HiPerfect transfection reagent (Qiagen, France). When indicated, Forskolin (20 μM) and IBMX (100 μM) were added to induce pigmentation on B16F10 cells. 48 hours later, medium was removed, and cells were used for western blot, quantitative PCR, melanin content analyses, immunofluorescence or brightfield imaging. Cells were detached with 0.05% Trypsin-EDTA solution (Thermo Scientific, France) and solubilized in NaOH 0.5N. Optical density was measured at 405 nm using melanin standard as a reference. Melanin content was normalized to the protein content.

[2] = system: MNT1 human melanoma cells; test: Melanin production in MNT1 human melanoma cells; type: cell-based
Procedure: as §1, with “were” for “were transfected with 50 nM siRNAs to SLC7A5, MITF or control siRNAs (ON-TARGETplus, Dharmacon) using HiPerfect transfection reagent (Qiagen, France). When indicated, Forskolin (20 μM) and IBMX (100 μM) were added to induce pigmentation on B16F10 cells. 48 hours later, medium was removed, and cells were used for western blot, quantitative PCR, melanin content analyses, immunofluorescence or brightfield imaging. Cells were”

[3] = system: normal human melanocytes (NHM); test: Melanin production in normal human melanocytes; type: cell-based; details: pigmented normal human melanocytes
Procedure: as §1, with “were” for “were transfected with 50 nM siRNAs to SLC7A5, MITF or control siRNAs (ON-TARGETplus, Dharmacon) using HiPerfect transfection reagent (Qiagen, France). When indicated, Forskolin (20 μM) and IBMX (100 μM) were added to induce pigmentation on B16F10 cells. 48 hours later, medium was removed, and cells were used for western blot, quantitative PCR, melanin content analyses, immunofluorescence or brightfield imaging. Cells were”

B16F10 cells [4] = test: Western blot of protein expression in B16F10 cells; type: cell-based, Mouse
Procedure: Proteins were analyzed by SDS-PAGE and transferred on PVDF membranes (Sigma, France). The antibodies used were as follow: beta-actin (ab8226), MITF (ab12039) and Tyrosinase (ab738) from Abcam, Rab27a (#69295) and HSP90 (#4874) from Cell Signaling Technologies, SLC7A5 (sc-374232) and TYRPI (sc-166857) from Santa Cruz. Signals were detected with horseradish peroxidase conjugated secondary antibodies using ECL detection kit and quantified by digital imaging (Fuji LAS4000).

[5] = system: Phototype VI Reconstructed Human Pigmented Epidermis
Procedure: Phototype VI Reconstructed Human Pigmented Epidermis (Sterlab, France) were treated with BCH or vehicle for 7 days. 10 μm cryosections were used to visualize melanin using Fontana-Masson stain kit (Interchim, France). Images were taken with a Nikon microscope and a 20× lens. Melanin content was quantified after solubilization of epidermis in Solvable® solution (PerkinElmer, France), and melanin content was quantified as described above.

tyrosinase [6] = target: T1, tyrosinase (Mus musculus, UniProt P11344); test: Tyrosinase (L-DOPA) activity after treatment of B16F10 cells; type: cell-based; parameters: endogenous in cells; host or cells: B16F10 melanoma cells; details: B16F10 cells treated at 10 mM
T1 sequence (P11344 19-533): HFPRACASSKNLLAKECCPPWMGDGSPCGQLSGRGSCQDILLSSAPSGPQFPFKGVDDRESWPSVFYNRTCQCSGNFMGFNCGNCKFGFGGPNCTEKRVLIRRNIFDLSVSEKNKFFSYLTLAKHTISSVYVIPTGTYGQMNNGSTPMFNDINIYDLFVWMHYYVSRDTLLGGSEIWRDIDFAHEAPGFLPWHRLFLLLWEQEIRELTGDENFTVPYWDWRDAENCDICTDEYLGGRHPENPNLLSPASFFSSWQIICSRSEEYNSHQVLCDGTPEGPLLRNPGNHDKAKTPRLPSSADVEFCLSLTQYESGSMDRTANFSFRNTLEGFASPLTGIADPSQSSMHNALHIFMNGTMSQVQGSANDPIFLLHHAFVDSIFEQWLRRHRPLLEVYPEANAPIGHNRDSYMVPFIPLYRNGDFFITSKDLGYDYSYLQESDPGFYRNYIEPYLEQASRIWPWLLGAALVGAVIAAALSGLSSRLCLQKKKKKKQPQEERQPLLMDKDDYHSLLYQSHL
Procedure: (§2) Proteins were resuspended in 0.1M Sodium Phosphate pH 6.8, supplemented with 5 mM L-DOPA. After incubation for 1 hour at 37° C., optical density was read at 475 nm.

tyrosinase [7] = target: T1, tyrosinase; test: DOPA oxidase assay, agent added directly in cell lysates; type: biochemical; parameters: when added directly in cell lysates during the DOPA oxidase assay; endogenous in cells; B16F10 by context); details: during the DOPA oxidase assay
Procedure: as §2

B16F10 cells [8] = test: Cell viability / proliferation of B16F10 cells (CellTiter Aqueous One); type: cell-based, Mouse
Procedure: Mouse B16F10 and Human 501Mel melanoma cells were cultured in Dulbecco's modified Eagle's medium (DMEM) supplemented with 7% Fetal Bovine Serum and 1% Penicillin/Streptomycin. Human MNT1 melanoma cells were cultured as described (Yasumoto et al., 2004). Normal Human Melanocytes were isolated from foreskin obtained after phimosis surgery. Patient consent was not required because French laws consider tissue left over from postectomy as discarded material. Melanocytes were cultured in MCDB medium as described (Bonet et al., 2017). Cells were tested every 4 weeks for […] presence. […] Cell viability was evaluated using CellTiter Aqueous One Solution Cell Proliferation Assay (Promega, France) as recommended by the supplier.

SMILES: NC1(C(=O)O)CC2CCC1C2 (stereo not shown) [BCH]
- inhibition of melanin production (B16F10 cells [1]; B16F10 cells, BCH at 5 mM): 25%
- inhibition of melanin production (B16F10 cells [1]; B16F10 cells, BCH at 10 mM): 60%
- melanin production [2]: significantly decreased melanin production
- melanin production [3]: significantly decreased melanin production
- Slc7a5 expression (B16F10 cells [4]; Western blot, B16F10 cells): did not affect Slc7a5 expression
- Tyrosinase or Rab27a expression (B16F10 cells [4]; Western blot, B16F10 cells): not affected consistently
- Tyrp1 expression (B16F10 cells [4]; Western blot, B16F10 cells): dose-dependent increase
- conversion of LC3-I to LC3-II (autophagy) (B16F10 cells [4]; at 5 and 10 mM): induced a conversion of LC3-I to LC3-II
- epidermis structure and keratinisation [5]: without affecting epidermis structure or keratinisation
- melanin content of reconstructed epidermis ([5]; treated for 7 days): statistically significant decrease in melanin content
- pigmentation of reconstructed epidermis (macroscopic, bright field images) ([5]; treated for 7 days): inhibited pigmentation
- pigmented melanocytes in epidermis sections (Fontana Masson staining) ([5]; treated for 7 days): absence of pigmented melanocytes
- tyrosinase activity after treatment of cells (tyrosinase [6]): did not
- tyrosinase activity, added directly in cell lysates (tyrosinase [7]): does not inhibit tyrosinase activity

SMILES: Nc1cc(COc2c(Cl)cc(C[C@H](N)C(=O)O)cc2Cl)c2oc(-c3ccccc3)nc2c1 [JPH203, O-[(5-amino-2-phenyl-7-benzoxazolyl)methyl]-3,5-dichloro-L-tyrosine]
- inhibition of pigmentation (melanin content) (B16F10 cells [1]; B16F10 cells, JPH203 at 10 and 50 μM, FIG. 2): efficiently inhibited pigmentation
- cell proliferation (B16F10 cells [8]; JPH203 at 10 and 50 μM): did not inhibit cell proliferation
- pigmentation of reconstructed epidermis (macroscopic, bright field images) ([5]; treated for 7 days): strong inhibition of pigmentation

SMILES: O=c1cc(CO)occ1O [Kojic Acid]
- inhibition at 1000 µM (B16F10 cells [1]; Mus musculus, B16-F10): 60%
- cell proliferation (B16F10 cells [8]; doses of Kojic acid that inhibit melanogenesis): did not affect cell proliferation
